Experimental data from the NIST ThermoML archive (doi:10.1016/j.jct.2006.05.008).

Assay: molar heat capacity at constant pressure
Details: 101.33 kPa, Small (less than 1 g) adiabatic calorimetry

CCn1cc[n+](C)c1.[Br-] [1-ethyl-3-methylimidazolium bromide]
molar heat capacity at constant pressure [J/K/mol]
Details | Crystal | Liquid
130 K | 114.2 | –
132.03 K | 115.39 | –
135.01 K | 116.87 | –
138 K | 118.34 | –
140 K | 119.1 | –
140.99 K | 119.85 | –
143.99 K | 121.33 | –
146.99 K | 122.81 | –
149.99 K | 124.27 | –
150 K | 124.1 | –
152.99 K | 125.74 | –
156 K | 127.17 | –
159 K | 128.63 | –
160 K | 128.9 | –
162.08 K | 130.18 | –
165.15 K | 131.64 | –
168.15 K | 133.08 | –
170 K | 133.7 | –
171.16 K | 134.55 | –
174.16 K | 136.01 | –
177.16 K | 137.5 | –
180 K | 138.6 | –
180.15 K | 138.89 | –
183.15 K | 140.38 | –
186.14 K | 141.85 | –
189.13 K | 143.32 | –
190 K | 143.6 | –
192.12 K | 144.81 | –
195.1 K | 146.31 | –
198.07 K | 147.84 | –
200 K | 148.7 | –
201.05 K | 149.45 | –
204.01 K | 151.13 | –
206.98 K | 152.7 | –
209.94 K | 154.27 | –
210 K | 153.9 | –
212.9 K | 155.83 | –
215.85 K | 157.4 | –
218.78 K | 158.98 | –
220 K | 159.2 | –
221.71 K | 160.52 | –
224.63 K | 162.13 | –
227.55 K | 163.72 | –
230 K | 164.7 | –
230.45 K | 165.37 | –
233.35 K | 166.97 | –
236.24 K | 168.5 | –
239.13 K | 170.14 | –
240 K | 170.4 | –
242 K | 171.88 | –
244.87 K | 173.49 | –
247.74 K | 175.15 | –
250 K | 176.2 | –
250.59 K | 176.83 | –
253.44 K | 178.51 | –
256.25 K | 180.2 | –
259.07 K | 181.98 | –
260 K | 182.2 | –
261.87 K | 183.73 | –
264.68 K | 185.47 | –
267.47 K | 187.2 | –
270 K | 188.3 | –
270.26 K | 188.95 | –
273.03 K | 190.7 | –
275.79 K | 192.52 | –
278.53 K | 194.49 | –
280 K | 195.1 | –
281.26 K | 196.34 | –
283.96 K | 198.2 | –
286.66 K | 199.93 | –
289.36 K | 201.96 | –
290 K | 202 | –
292.03 K | 203.78 | –
294.7 K | 205.78 | –
297.36 K | 207.81 | –
298.15 K | 207.5 | –
299.92 K | 209.77 | –
300 K | 208.8 | –
310 K | 215.7 | –
320 K | 222.5 | –
330 K | 229.4 | –
340 K | 236.3 | –
347.66 K | – | 265.34
349.92 K | 243.1 | 264.8
350 K | – | 264.8
350.15 K | – | 266.1
352.61 K | – | 266.89
353.91 K | – | 267.52
355.07 K | – | 267.71
357.53 K | – | 268.53
359.99 K | – | 269.33
360 K | – | 268.6
361.35 K | – | 270.21
362.45 K | – | 270.78
364.95 K | – | 271.95
366.81 K | – | 270.88
367.5 K | – | 272.58
370 K | – | 272.4
